# Where no end group is shown, it is not given here.
# How the values were obtained:
# all strains in Table 2 = test: Geometric mean of MIC and therapeutic index; format: cell-based; details: for Therapeutic index (TI) / selectivity index (SI), All: MHC/GM, 128 μm used when 50% hemolysis not observed at 128 μm
# Procedure: (§1) The bacteria were cultured overnight in the MHB medium and transferred to the new MHB the next day until the bacteria reached the exponential growth stage. The bacteria were diluted with MHB to 2 × 10^5 CFU/ml. About 50 μl of polypeptide and equal volume of bacterial suspension was added to a 96-well plate to give the final concentration of polypeptide between 1 and 128 μm. The last two columns are negative (MHB only) and positive (bacterial and MHB) controls and incubated at 37°C for 18–24 h. Optical density was measured at an absorbance wavelength of 492 nm using a microplate reader (Tecan GENios F129004, Tecan, Austria). At least three independent measurements were taken. Each trial was conducted two times in parallel. A total of three independent assays were carried out.
# Trp is a hydrophobic amino acid with aromatic side chains. It is a special amino acid in peptide design. Previous studies have pointed out that introducing amino acids will also bring toxicity while improving activity. Therefore, at the beginning of the design, we predicted that selecting Trp as hydrophobic amino acid to substitute H-H position would bring certain toxicity to the peptide. Thus, as expected, the introduction of Trp increases the activity and toxicity of these peptides. […] Meanwhile, the virulence of TP(i+4) 1&2&5&6 and TP(i+4) 1&2&6&7 was lower than that of TP(i+4) 1&2&5&7. We infer that the location of hydrophobic centers can effectively reduce peptide toxicity by Trp substitution. For further evaluating the cell selectivity of the peptides, we also calculated the SI which defined as the ratio of MHC to the geometric mean (GM) (Dufourc, [2008]).
# [1] = system: hRBCs (human red blood cells)
# Procedure: The cytotoxicity of each peptide was assessed with IPEC-J12 and HEK 293T cells. […] Each trial was conducted two times in parallel. A total of three independent assays were carried out.
# Gram-negative bacteria = test: Geometric mean of MIC and therapeutic index; format: cell-based; details: for Therapeutic index (TI), Gram-negative bacteria: MHC/GM, 128 μm used when 50% hemolysis not observed at 128 μm
# Procedure: as §1
# (§2) Trp is a hydrophobic amino acid with aromatic side chains. It is a special amino acid in peptide design. Previous studies have pointed out that introducing amino acids will also bring toxicity while improving activity. […] For further evaluating the cell selectivity of the peptides, we also calculated the SI which defined as the ratio of MHC to the geometric mean (GM) (Dufourc, [2008]).
# Gram-positive bacteria = test: Geometric mean of MIC and therapeutic index; format: cell-based; details: for Therapeutic index (TI), Gram-positive bacteria: MHC/GM, 128 μm used when 50% hemolysis not observed at 128 μm
# Procedure: as §1, §2
# [2] = system: Pseudomonas aeruginosa ATCC 27853
# Source text: (§3) The bacteria strains Escherichia coli ATCC 25922, Escherichia coli UB1005, Salmonella typhimurium ATCC 14028, Salmonella typhimurium C7731, Pseudomonas aeruginosa ATCC 27853, Pseudomonas aeruginosa PAO1, Staphylococcus aureus ATCC 29213, Staphylococcus aureus ATCC 25923, Methicillin-resistant Staphylococcus aureus (MRSA) 43300, Enterococcus faecalis ATCC 29212, and Staphylococcus epidermidis ATCC 12228 were obtained from the College of Veterinary Medicine, Northeast Agricultural University (Harbin, China).
# as §1
# [3] = system: Staphylococcus epidermidis ATCC 12228
# Source text: as §3, §1
# [4] = system: Methicillin-resistant Staphylococcus aureus (MRSA) 43300; details: Methicillin-resistant 43300
# Source text: as §3, §1
# [5] = system: Staphylococcus aureus ATCC 25923
# Source text: as §3, §1
# [6] = system: Staphylococcus aureus ATCC 29213
# Source text: as §3, §1
# [7] = system: Pseudomonas aeruginosa PAO1
# Source text: as §3, §1
# [8] = system: Enterococcus faecalis ATCC 29212
# Source text: as §3, §1
# [9] = system: Escherichia coli ATCC 25922
# Source text: as §3, §1
# [10] = system: Salmonella typhimurium ATCC 14028
# Source text: as §3, §1
# [11] = system: Salmonella typhimurium C7731; details: MHB, bacteria diluted to 2 × 10^5 CFU/ml, peptide 1-128 μm, 37°C 18-24 h, OD 492 nm; three independent assays, two in parallel
# Source text: as §3, §1
# Escherichia coli UB1005 = details: MHB, bacteria diluted to 2 × 10^5 CFU/ml, peptide 1-128 μm, 37°C 18-24 h, OD 492 nm; three independent assays, two in parallel
# Source text: as §3, §1
# [12] = strains of Table 2, 128 μm used when no activity at 128 μm
Substance,"Geometric mean (GM) of MIC, All (all strains in Table 2; all strains in Table 2, 128 μm used when no activity at 128 μm)",MHC (concentration of peptide that causes hemolysis of 50% of human red blood cells) [1],"Geometric mean (GM) of MIC, Gram-negative bacteria (Gram-negative bacteria; [12])","Geometric mean (GM) of MIC, Gram-positive bacteria (Gram-positive bacteria; [12])","MIC, P. aeruginosa 27853 [2]","MIC, S. epidermidis 12228 [3]","MIC, S. aureus 43300 [4]","MIC, S. aureus 25923 [5]","MIC, S. aureus 29213 [6]","MIC, P. aeruginosa PAO1 [7]","MIC, E. faecalis 29212 [8]","MIC, E. coli 25922 [9]","MIC, S. typhimurium 14028 [10]","Therapeutic index (TI) / selectivity index (SI), All (all strains in Table 2)","Therapeutic index (TI), Gram-negative bacteria (Gram-negative bacteria)","Therapeutic index (TI), Gram-positive bacteria (Gram-positive bacteria)","MIC, S. typhimurium 7731 [11]","MIC, E. coli UB1005 (Escherichia coli UB1005)"
AKVVKKLTKGVAGLLK-NH2 [TP(i+4) 1&3],95.89 µM,>128 µM,71.84 µM,128.00 µM,128 µM,>128 µM,>128 µM,>128 µM,>128 µM,64 µM,>128 µM,64 µM,>128 µM,,,,,
AKVVKKLTKGVAKLLK-NH2 [TP(i+4) 1&2&3],,>128 µM,,,64 µM,>128 µM,>128 µM,>128 µM,>128 µM,16 µM,>128 µM,32 µM,128 µM,1.89,3.56,1.00,64 µM,8 µM
AKVVNKLTGGVAGLLK-NH2 [TP(i+4) 3],,>128 µM,,,>128 µM,>128 µM,>128 µM,>128 µM,>128 µM,>128 µM,>128 µM,>128 µM,>128 µM,1.00,1.00,1.00,>128 µM,>128 µM
AKVVNKLTGKVAGLLK-NH2 [TP(i+4) 3&4],,>128 µM,,,>128 µM,>128 µM,>128 µM,>128 µM,>128 µM,128 µM,>128 µM,128 µM,>128 µM,1.06,1.12,1.00,>128 µM,64 µM
AKVVNKLTKKVAKLLK-NH2 [TP(i+4) 2&3&4],,>128 µM,,,128 µM,>128 µM,>128 µM,>128 µM,>128 µM,8 µM,>128 µM,16 µM,64 µM,2.00,4.00,1.00,64 µM,16 µM
ASVVKKLTKGVAGLLK-NH2 [TP(i+4) 1],,>128 µM,,,64 µM,>128 µM,>128 µM,>128 µM,>128 µM,64 µM,>128 µM,16 µM,128 µM,1.68,2.83,1.00,64 µM,16 µM
ASVVKKLTKKVAGLLK-NH2 [TP(i+4) 1&4],,>128 µM,,,32 µM,>128 µM,>128 µM,>128 µM,>128 µM,16 µM,>128 µM,8 µM,64 µM,2.56,,1.00,32 µM,8 µM
ASVVKKLTKKVAKLLK-NH2 [TP(i+4) 1&2&4],,>128 µM,,,32 µM,>128 µM,>128 µM,>128 µM,>128 µM,8 µM,>128 µM,4 µM,64 µM,2.98,8.90,1.00,32 µM,4 µM
"ASVVNKLTGGVAGLLK-NH2 [TP, reference compound]",,>128 µM,,,>128 µM,>128 µM,>128 µM,>128 µM,>128 µM,>128 µM,>128 µM,>128 µM,>128 µM,1.00,1.00,1.00,>128 µM,>128 µM
ASVVNKLTGKVAGLLK-NH2 [TP(i+4) 4],,>128 µM,,,64 µM,>128 µM,>128 µM,>128 µM,>128 µM,64 µM,>128 µM,16 µM,128 µM,1.68,2.83,1.00,64 µM,16 µM
ASVVNKLTKGVAKLLK-NH2 [TP(i+4) 2],,>128 µM,,,64 µM,>128 µM,>128 µM,>128 µM,>128 µM,32 µM,>128 µM,16 µM,128 µM,1.89,3.56,1.00,64 µM,8 µM
